The source of these data is patent US10808008B2, “Aromatic-cationic peptides and uses of same” (Cornell University, priority 2012, dated 2020).

Test [1] in a line: Fluorescence spectroscopy of labelled peptide with other phospholipids. It is filed as binding. Particulars: 1 μM peptide. Here is the method: 1-palmitoyl-2-oleoyl-sn-glycero-3-phosphocholine (POPC), 1-palmitoyl-2-oleoyl-sn-glycero-3-phosphate (POPA), 1-palmitoyl-2-oleoyl-sn-glycero-3-phospho-L-serine (POPS), 1-palmitoyl-2-oleoyl-sn-glycero-3-phosphoethanolamine (PE), and 1,2-dipalmitoyl-sn-glycero-3-phospho-(1′-rac-glycerol) (DPPG) were obtained from Avanti Polar Lipids Inc (Alabaster, Ala.).
Changes in the emission intensity of the [atn]SS-02 and the [ald]SS-02 were measured using a Hitachi F-4500 fluorescence spectrophotometer. The different solvents used to dissolve the various phospholipids (chloroform, methanol and ethanol) had negligible effect on the fluorescence spectrum of [atn]SS-02 and [ald]SS-02. All experiments were done in low ionic solution (deionized water) to optimize electrostatic interactions of peptides with phospholipids.

The test system of test [2] is isolated rat kidney mitochondria / cytochrome c-deficient mitoplasts. Briefly: Fluorescence quenching by isolated mitochondria or cytochrome c-deficient mitoplasts. Format: binding. Here is the method:
The quenching by cytochrome c was not displaced by sequential additions of bovine serum albumin (FIG. 12C, A+arrows) (500 μg/ml). […] Accordingly, aromatic-cationic peptides of the present disclosure are useful for the prevention or treatment of diseases or disorders characterized by dysregulation of cytochrome c.
Uptake of [atn]SS-02 by isolated mitochondria or cytochrome c-deficient mitoplasts was determined by fluorescence quenching of [atn]SS-02 (λex/λem=320/420) upon addition of a fresh mitochondrial or mitoplast suspension (0.35 mg).
Mitochondria were isolated from the kidney of male Sprague-Dawley rats (Charles River Laboratories International, Inc., Wilmington, Mass.) weighing 250 to 300 g. Excised kidneys were cut and incubated in wash buffer (200 mM mannitol, 10 mM sucrose, 5 mM HEPES, 1 g/L fatty-acid-free BSA, to pH to 7.4 with KOH) on ice for 10 minutes. Samples were washed 2 times in isolation buffer (wash buffer with 1 mM EGTA), homogenized for 3 minutes, and then centrifuged in 20 ml of isolation buffer at 900×g for 10 minutes. The white fatty acid layer was then removed and the […]. The supernatant was centrifuged at 11,000×g for 10 minutes, and the pellet was re-suspended in 800 μl of wash buffer and kept on ice for further analysis.
Mitoplasts deficient in cytochrome c were prepared by first treating fresh or once-frozen mitochondria with 3.3 mg/ml digitonin for 45 minutes on ice, in order to remove the mitochondrial outer membrane. To remove electrostatically-bound cytochrome c, […] pH 7.4 was then added to the mix and centrifuged at 19,000×g for 30 minutes. The pellet was collected and re-dissolved in wash buffer and stored on ice until use. Only mitoplast preparations that responded to the addition of 200 nM exogenous cytochrome c by 4-5 fold increase in mitochondrial respiration (oxygen consumption) were used in the study. […]

Test [3] addresses T1, cytochrome c (Equus caballus, UniProt P00004). Briefly: Photoluminescence of cytochrome c. Format: biochemical. Particulars: excitation 532.8 nm. As for the experimental part: Photoluminescence (PL) was carried out to examine the effects of SS-31 on the electronic structure of conduction band of the heme of cytochrome c, an energy state responsible for electronic transport (FIG. 3). A […] laser (532.8 nm) was used to excite electrons in cytochrome c (FIG. 3A). Strong PL emission in cytochrome c state can be clearly identified at 650 nm (FIG. 3B). […] Accordingly, aromatic-cationic peptides of the present disclosure are useful for the prevention or treatment of diseases or disorders characterized by dysregulation of cytochrome c, for enhancing electron capacity in cytochrome c, and for treatment of diseases or disorders characterized by dysregulation of electron capacity in cytochrome c.

In test [4] the target is T1, cytochrome c. Briefly: Circular dichroism of Soret band of cytochrome c. Format: biochemical. Here is the method:
Circular dichroism (Olis spectropolarimeter, DSM20) was carried out to monitor Soret band (negative peak at 415 nm), as a probe for the π-π* heme environment in cytochrome c (FIG. 4). […] The increase in π-π* interaction around the heme would enhance electron tunneling which would be favorable for electron diffusion. Accordingly, aromatic-cationic peptides of the present disclosure are useful for the prevention or treatment of diseases or disorders characterized by dysregulation of cytochrome c, and to induce novel π-π interactions around cytochrome c heme.
(Circular dichroism is the unequal absorption of left and right circularly polarised light.)

Like-named read-outs stand apart in the source and are kept apart here.

T1 sequence (P00004 2-105 limits assumed): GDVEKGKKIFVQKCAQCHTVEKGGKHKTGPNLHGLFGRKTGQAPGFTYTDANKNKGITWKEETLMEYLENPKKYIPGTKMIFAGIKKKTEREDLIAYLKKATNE

As to 2′,6′-Dmt-D-Arg-Ald-Lys-NH2 [SS-36], the “interaction with POPC, POPE and neutral cholesterol” value in test [1] is recorded as “No interaction”.
“2′,6′-Dmt-D-Arg-Phe-(atn)Dap-NH2 [SS-19]”: the figures for the “quenching of fluorescence by cytochrome c-depleted/deficient mitoplasts versus mitochondria” value in test [2] and in test [2] (listed as [atn]SS-02) were “significantly reduced” and “appreciable in cytochrome c-deficient mitoplasts but was less than in intact mitochondria”, respectively. For the same substance, the “quenching of fluorescence by isolated mitochondria” value in test [2] (10 μM peptide, 0.2 mg mitochondria) is “quenched by sequential addition of 0.2 mg isolated rat renal kidney mitochondria”.
As to D-Arg-2′,6′-Dmt-Lys-Phe-NH2 [SS-31], in test [3], the “photoluminescence (PL) intensity of cytochrome c at 650 nm” value is on record as “increased dose-dependently”. Further, the “position of Soret band negative peak after peptide (415 nm before)” value in test [4] stood at 440 nm.
